Laboratory results taken from ChEMBL document CHEMBL1201862, “PubChem BioAssay data set” (2004).
Calls of active or inactive are those of the source.

Experiments:
[1] = Trypanosoma cruzi growth suppression in host cells – NIH3T3 host cells, beta-gal luminescence, confirmation (AID 2044); type: functional, cell-based;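 note: intracellular parasites grown in NIH/3T3 mouse fibroblasts as host cells; luminescent beta-galactosidase reporter signal from transgenic T. cruzi replicating inside host cells; inhibitors lower the luminescence signal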
[2] = NIH3T3 cell viability loss – ATP luminescence, mouse fibroblasts, counter-screen, dose response (AID 2010); type: functional, cell-based;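 note: cells exposed to compound for about 90 hours before reading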
Cytochrome P450 3A4 = Cytochrome P450 3A4 (Homo sapiens, UniProt P08684);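 note: CYP3A4 tested as one member of a cytochrome P450 panel screen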
Cytochrome P450 2C9 = Cytochrome P450 2C9 (Homo sapiens, UniProt P11712)
Cytochrome P450 2C19 = Cytochrome P450 2C19 (Homo sapiens, UniProt P33261); assay: Cytochrome panel assay with activity outcomes. Panel member name: p450-cyp2c19 Compounds with AC50 equal or less than 10 uM are considered active; type: functional
[3] = biological target: T1, Heat shock factor protein 1 (Mus musculus, UniProt P38532); assay: decrease of HSF1-responsive luciferase luminescence – cell-based, NIH3T3, dose retest, confirmation (AID 2382); type: functional;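 note: NIH3T3 fibroblasts with HSF1-driven luciferase reporter stressed by proteasome inhibitor MG132; luminescence from HSF1-driven luciferase expression after 8 hours of MG132 stress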
T1 sequence (P38532 whole entry): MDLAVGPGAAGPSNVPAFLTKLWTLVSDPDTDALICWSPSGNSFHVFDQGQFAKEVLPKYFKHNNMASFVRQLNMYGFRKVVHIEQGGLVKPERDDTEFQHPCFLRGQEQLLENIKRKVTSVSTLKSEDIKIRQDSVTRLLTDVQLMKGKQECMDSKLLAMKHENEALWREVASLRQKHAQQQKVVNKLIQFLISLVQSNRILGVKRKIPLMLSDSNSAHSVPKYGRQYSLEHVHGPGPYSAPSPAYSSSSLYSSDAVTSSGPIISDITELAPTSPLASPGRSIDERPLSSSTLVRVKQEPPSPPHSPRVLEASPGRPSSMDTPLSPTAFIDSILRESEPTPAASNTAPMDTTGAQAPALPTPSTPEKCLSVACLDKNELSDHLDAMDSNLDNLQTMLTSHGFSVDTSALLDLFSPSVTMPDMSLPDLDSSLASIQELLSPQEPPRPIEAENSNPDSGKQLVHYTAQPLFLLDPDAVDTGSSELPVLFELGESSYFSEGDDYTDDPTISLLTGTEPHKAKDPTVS

Cytochrome P450 3A4, sequence (P08684 whole entry): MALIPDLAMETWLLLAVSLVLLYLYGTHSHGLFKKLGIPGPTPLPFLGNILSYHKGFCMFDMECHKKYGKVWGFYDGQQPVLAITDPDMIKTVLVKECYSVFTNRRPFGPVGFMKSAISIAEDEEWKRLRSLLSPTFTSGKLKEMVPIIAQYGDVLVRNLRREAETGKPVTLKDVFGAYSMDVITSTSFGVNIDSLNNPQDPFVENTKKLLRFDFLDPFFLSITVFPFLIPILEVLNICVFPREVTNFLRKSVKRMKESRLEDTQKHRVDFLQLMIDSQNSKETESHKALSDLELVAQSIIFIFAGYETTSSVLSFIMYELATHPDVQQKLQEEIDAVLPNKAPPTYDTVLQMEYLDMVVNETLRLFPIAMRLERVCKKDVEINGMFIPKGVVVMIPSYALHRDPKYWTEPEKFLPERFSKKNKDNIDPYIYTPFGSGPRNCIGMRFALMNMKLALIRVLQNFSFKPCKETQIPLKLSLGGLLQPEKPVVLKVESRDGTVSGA
Cytochrome P450 2C9, sequence (P11712 whole entry): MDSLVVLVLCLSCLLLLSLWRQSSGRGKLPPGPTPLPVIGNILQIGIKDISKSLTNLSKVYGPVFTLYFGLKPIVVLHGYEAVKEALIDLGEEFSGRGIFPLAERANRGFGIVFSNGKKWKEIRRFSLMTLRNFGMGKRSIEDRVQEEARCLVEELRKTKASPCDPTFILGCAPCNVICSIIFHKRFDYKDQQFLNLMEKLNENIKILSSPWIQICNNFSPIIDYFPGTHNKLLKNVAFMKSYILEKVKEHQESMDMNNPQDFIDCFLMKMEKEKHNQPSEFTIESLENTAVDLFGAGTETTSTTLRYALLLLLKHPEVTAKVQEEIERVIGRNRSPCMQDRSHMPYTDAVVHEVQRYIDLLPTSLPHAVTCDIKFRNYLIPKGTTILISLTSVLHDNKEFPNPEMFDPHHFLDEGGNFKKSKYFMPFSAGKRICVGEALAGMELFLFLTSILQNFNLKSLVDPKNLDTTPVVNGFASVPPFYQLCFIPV
Cytochrome P450 2C19, sequence (P33261 whole entry): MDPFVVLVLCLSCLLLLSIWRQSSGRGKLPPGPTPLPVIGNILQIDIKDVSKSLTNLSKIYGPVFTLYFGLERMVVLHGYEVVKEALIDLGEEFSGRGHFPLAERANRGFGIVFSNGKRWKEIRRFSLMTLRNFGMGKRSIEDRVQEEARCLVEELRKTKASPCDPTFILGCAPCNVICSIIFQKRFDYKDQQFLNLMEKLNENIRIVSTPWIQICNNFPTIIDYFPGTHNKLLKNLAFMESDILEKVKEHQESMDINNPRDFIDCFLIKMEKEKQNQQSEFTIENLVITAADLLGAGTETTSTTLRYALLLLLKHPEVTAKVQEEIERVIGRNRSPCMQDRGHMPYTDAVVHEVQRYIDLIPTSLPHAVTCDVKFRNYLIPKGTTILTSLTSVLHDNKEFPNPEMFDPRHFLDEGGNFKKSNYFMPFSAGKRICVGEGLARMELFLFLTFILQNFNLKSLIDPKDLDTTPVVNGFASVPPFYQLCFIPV

COc1ccccc1CN1CCCC(N2CCN(c3ccc(F)cc3)CC2)C1 (stereo unspecified)
EC50 [1]: 0.253 µM (active) | EC50 [2]: 10.1 µM (active)

CCOP(=O)(OCC)C(NC(=O)C(Cl)Cl)C(Cl)(Cl)Cl (stereo unspecified)
AC50 (Cytochrome P450 3A4): 31.6 µM (inconclusive) | AC50 (Cytochrome P450 2C9): 39.8 µM (inconclusive)

CC(=O)O[C@H]1C2=CO[C@H](C)[C@H]3C4C5=C([C@@H](O[C@H]4C)[C@@]23C(=O)[C@H]2O[C@@H]21)[C@H](O)[C@H]1O[C@@H]1C5=O
AC50 (Cytochrome P450 3A4): 3.98 µM (inconclusive)

COCCn1c(=O)c(-c2ccc(OC)cc2)nc2cnc(OCc3ccccc3)nc21
AC50 (Cytochrome P450 3A4): 25.1 µM (inconclusive)

CCOc1ccc(OCC)c(NC(=O)C2CCCN(S(=O)(=O)c3cccs3)C2)c1 (stereo unspecified)
AC50 (Cytochrome P450 2C19; read-out: AC50): 2.82 µM (inconclusive) | AC50 (Cytochrome P450 2C9): 2.51 µM (inconclusive)

O=S(=O)(NCCCCCCc1ccccc1)c1cccc2c(Cl)cccc12
AC50 (Cytochrome P450 2C9): 5.01 µM (inconclusive)

O=C(c1cnccn1)N1CCC2(CCCN(c3ccccc3)C2)CC1
AC50 (Cytochrome P450 2C9): 39.8 µM (inconclusive)

O=C(NCCc1ccccn1)c1cc(C(=O)C2CCCCC2)c[nH]1
AC50 (Cytochrome P450 2C9): 0.158 µM (inconclusive)

Cc1ccc(CNC(=O)C2CCCN2C(=O)NCc2ccccc2)cc1 (stereo unspecified)
AC50 (Cytochrome P450 2C9): 11.2 µM (inconclusive)

Sc1c2ncnc-2ncn1CCSc1[nH]cnc2ncnc1-2
AC50 (Cytochrome P450 2C19): inconclusive

Cc1ccc(C(=N)NOC(=O)Cc2cccs2)cc1
AC50 (Cytochrome P450 3A4): 28.2 µM (inconclusive)

N#CC(C#N)=C(N)/C(C#N)=C/c1ccc(O)cc1
AC50 (Cytochrome P450 3A4): 39.8 µM (inconclusive)

COc1ccccc1CN(C)C(=O)C1COc2ccccc2O1 (stereo unspecified)
EC50 [3]: > 195 µM (not active)

COn1c(-c2ccccc2)nc2c1CCc1nonc1-2
AC50 (Cytochrome P450 3A4): 31.6 µM (inconclusive) | AC50 (Cytochrome P450 2C9): 25.1 µM (inconclusive)

CCCn1c(NC(=O)c2ccc(F)cc2)nc2ccccc21
EC50 [1]: 3 µM (active) | EC50 [2]: > 60 µM (not active)

CCNc1ncc2nc(CCc3ccccc3)c(=O)n(C3CC3)c2n1
AC50 (Cytochrome P450 2C9): 3.98 µM (inconclusive)

CN1CCN(NC(=O)c2cc([N+](=O)[O-])cc([N+](=O)[O-])c2)CC1
EC50 [1]: 2.33 µM (active) | EC50 [2]: > 30 µM (not active)

CCN(CC)C(=O)C1CCCN(c2ccc([N+](=O)[O-])cc2/C=N/NC(=O)c2ccc([N+](=O)[O-])cc2)C1 (stereo unspecified)
EC50 [3]: > 195 µM (not active) | AC50 (Cytochrome P450 3A4): 2.82 µM (inconclusive)

COc1cccc(-c2csc(N3CCN(C(=S)Nc4ccccc4)CC3)n2)c1
AC50 (Cytochrome P450 2C9): 0.158 µM (inconclusive)

O=C(NCC1CCCN(Cc2ccccc2F)C1)c1cccc(C(F)(F)F)c1 (stereo unspecified)
EC50 [1]: 0.975 µM (active) | EC50 [2]: > 60 µM (not active)

CCN(CC)C(=O)C1CCCN(Cc2ccc(N(C)C)cc2)C1 (stereo unspecified)
EC50 [1]: 0.296 µM (active) | EC50 [2]: > 60 µM (not active)

CCOc1ccccc1CN1CCN(Cc2nc3ccccc3s2)CC1CCO (stereo unspecified)
EC50 [1]: 1.16 µM (active) | EC50 [2]: > 60 µM (not active)

COc1ccc(/C=C/C(=O)Oc2ccc(/C=N/NC(=O)COc3c(C)cccc3C)cc2)cc1
EC50 [3]: > 195 µM (not active)

Cc1nc(N=C(N)NS(=O)(=O)c2ccc([N+](=O)[O-])cc2)nc2ccccc12
EC50 [1]: 0.452 µM (active) | EC50 [2]: 24.6 µM (active)

COc1ccc2nc3c(O)n(CCCN4CCOCC4)cnc-3c2c1
EC50 [3]: > 195 µM (not active)

CCOC(=O)c1cncc(C(=O)O)c1
AC50 (Cytochrome P450 2C19; read-out: AC50): 31.6 µM (inconclusive)

COc1ccc(CCNC(=O)C2CCN(S(=O)(=O)N3CC(C)CC(C)C3)CC2)cc1OC (stereo unspecified)
AC50 (Cytochrome P450 2C9): 22.4 µM (inconclusive)

Nc1ccccc1S[C@@H](C[N+](=O)[O-])c1ccc2c(c1)OCO2
AC50 (Cytochrome P450 3A4): 2.51 µM (inconclusive) | AC50 (Cytochrome P450 2C9): 6.31 µM (inconclusive)

Cn1c(SC2CCCCC2=O)nnc1-c1ccncc1 (stereo unspecified)
AC50 (Cytochrome P450 3A4): 25.1 µM (inconclusive)

COCCN(C(=O)COC(=O)/C=C/c1ccc(C(F)(F)F)cc1)c1c(N)n(Cc2ccccc2)c(=O)[nH]c1=O
EC50 [3]: > 195 µM (not active)

COc1ccc(NC(=O)Cn2c(=O)n(Cc3ccco3)c(=O)c3ccccc32)cc1
EC50 [3]: > 195 µM (not active)

CC(=O)Nc1ccc(OS(=O)(=O)c2ccccc2C)cc1
EC50 [3]: > 195 µM (not active)

O=C(c1ccco1)N1CCN(S(=O)(=O)/C=C/c2ccccc2)CC1
EC50 [3]: > 195 µM (not active)

Cc1cc([N+](=O)[O-])nn1CC(=O)NCc1nc2ccccc2[nH]1
EC50 [3]: > 195 µM (not active)

O=C(COC(=O)c1cnccn1)Nc1ccc(Cl)cn1
EC50 [3]: > 195 µM (not active)

CCCCCCN1CC(=O)N2[C@@H](Cc3c([nH]c4ccccc34)C2(C)C)C1=O
EC50 [3]: > 195 µM (not active)

O=S(=O)(NCc1ccc(C(F)(F)F)cc1)c1ccc(-n2cnnn2)cc1
EC50 [3]: > 195 µM (not active)

O=C(CCN1CCN(C/C=C/c2ccccc2)CC1)Nc1ccccc1
EC50 [1]: 1.95 µM (active) | EC50 [2]: > 60 µM (not active)

Clc1ccc(OCCn2ccnc2)cc1Cl
EC50 [1]: 2.49 µM (active) | EC50 [2]: > 60 µM (not active)

CC(=O)SCC[N+](C)(C)C [ACETYLTHIOCHOLINE]
AC50 (Cytochrome P450 2C19): inconclusive

CN1CCN(c2ccc(S(=O)(=O)N3CCCCC3)cc2NC(=O)CSCc2ccccc2)CC1
EC50 [1]: 0.315 µM (active) | EC50 [2]: > 60 µM (not active)

CCc1ccc(NC(=O)CSc2ccc(-c3cccnc3)nn2)cc1
EC50 [3]: > 195 µM (not active)

CCN1CCCc2cc(CN(CCN3CCOCC3)C(S)=Nc3ccccc3OC)ccc21
EC50 [1]: 1.53 µM (active) | EC50 [2]: > 60 µM (not active)

CN(C)c1ncc(CN2CCC(CO)(CCCc3ccccc3)CC2)s1
EC50 [1]: 0.996 µM (active) | EC50 [2]: > 60 µM (not active)

Cc1oc(-c2ccccc2F)nc1C[S+]([O-])CC(=O)N1CCC2(CC1)OCCO2 (stereo unspecified)
AC50 (Cytochrome P450 2C9): 20 µM (inconclusive)

Cc1ccc(C(=O)Nc2ccccc2C(=O)O)cc1S(=O)(=O)NCc1ccccc1
EC50 [3]: > 195 µM (not active)

N#Cc1ccccc1NC(=O)c1ccccc1OCC(=O)Nc1ccc2c(c1)oc1ccccc12
EC50 [1]: 2.85 µM (active) | EC50 [2]: 47.3 µM (active)

CCCc1cc2c(n1CCO)C(C)C1CN(C(=O)c3ccccc3)C(C)(C(=O)OC)C21 (stereo unspecified)
AC50 (Cytochrome P450 2C19; read-out: AC50): 3.16 µM (inconclusive)

CCOC(=O)c1ccc(S(=O)(=O)N2CCN(C)CC2)cc1
AC50 (Cytochrome P450 2C9): 39.8 µM (inconclusive)

COc1ccc2[nH]cc(CCNc3ccnc(-c4cccc(NS(C)(=O)=O)c4)n3)c2c1
AC50 (Cytochrome P450 3A4): 2.51 µM (inconclusive) | AC50 (Cytochrome P450 2C9): 0.126 µM (inconclusive)

COc1ccccc1CN1CCN(Cc2nc(Cc3ccccc3)no2)CC1
EC50 [1]: 0.754 µM (active) | EC50 [2]: > 30 µM (not active)

O[C@@H](COc1cccc2ccccc12)CN1CCOCC1
AC50 (Cytochrome P450 2C19; read-out: AC50): 0.0501 µM (inconclusive)

Cc1c(C)n(CCCN(C)C)c2ncnc(NC3CCCCC3)c12
EC50 [1]: 0.603 µM (active) | EC50 [2]: > 60 µM (not active)

COc1ccccc1NC(=O)C1CCN(C(=O)C2CC(=O)N(c3ccc(C)cc3)C2)CC1 (stereo unspecified)
EC50 [3]: > 195 µM (not active)

CC(=O)OCC1=C(C(=O)O)N2C(=O)[C@@H](NC(=O)CCC[C@@H](N)C(=O)O)[C@@H]2SC1
AC50 (Cytochrome P450 2C9): 39.8 µM (inconclusive)

CC(C)NC(=O)N1CC[C@@]2(CCCN(C(=O)c3csnn3)C2)C1
AC50 (Cytochrome P450 3A4): 15.8 µM (inconclusive)

N#CC1=C(N)N(c2ccc(Oc3ccccc3)cc2)C(=O)C1
EC50 [3]: > 195 µM (not active)

O=C(C1=C[C@H](c2csc3ccccc23)C[C@H](OCc2ccc(CO)cc2)O1)N1CCN(Cc2ccc3c(c2)OCO3)CC1
EC50 [1]: 0.137 µM (active) | EC50 [2]: > 60 µM (not active)

O=C(Nc1cccnc1)c1noc2c1CCCCC2
EC50 [3]: 0.288 µM (active)
